Test [1] has as its target T1, human URAT1 (Homo sapiens, UniProt Q96S37).
T1 construct: hURAT1 and rURAT1 are 553 amino acid proteins with 12 transmembrane segments; expressed in transfected cells; host or cells: URAT1-transfected cells (HEK-293T per the transfection section)
T1 sequence (Q96S37 1-553): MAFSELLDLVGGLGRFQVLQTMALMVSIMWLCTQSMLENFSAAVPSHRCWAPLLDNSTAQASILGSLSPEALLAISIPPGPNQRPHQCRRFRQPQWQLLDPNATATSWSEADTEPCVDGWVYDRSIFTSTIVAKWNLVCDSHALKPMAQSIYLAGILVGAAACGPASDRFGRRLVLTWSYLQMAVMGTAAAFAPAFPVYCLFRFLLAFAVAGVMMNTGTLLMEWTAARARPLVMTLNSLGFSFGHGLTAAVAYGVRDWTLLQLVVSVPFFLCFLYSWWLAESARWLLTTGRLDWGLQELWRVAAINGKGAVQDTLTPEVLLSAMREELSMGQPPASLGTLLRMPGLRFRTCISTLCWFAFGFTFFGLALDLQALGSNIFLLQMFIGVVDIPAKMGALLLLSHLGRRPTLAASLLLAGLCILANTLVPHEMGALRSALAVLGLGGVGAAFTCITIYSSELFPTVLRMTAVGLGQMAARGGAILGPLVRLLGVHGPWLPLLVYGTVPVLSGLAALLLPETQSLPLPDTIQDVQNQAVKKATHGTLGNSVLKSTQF
The experiment in a line: ^3H-RDEA3170 URAT1 membrane binding assay. How it is done: (§1) Membranes were prepared from URAT1-transfected cells. […] Cells were lysed with 100 strokes in a dounce homogenizer using a tight-fitting “B” stem. Lysates were transferred to 1.5 ml Eppendorf tubes and centrifuged at 250 rcf for 5 minutes at 2 °C, and supernatants were transferred to fresh tubes and centrifuged again at 18,000 rcf for 20 minutes at 2 °C. The pellets (membrane fractions) were resuspended in 1 ml of ice-cold binding buffer containing protease inhibitors and frozen at −80 °C. Protein was measured using the Bio-Rad protein assay dye reagent concentrate.
(§2) To initiate binding, membranes at 2.5 μg total protein were incubated with ^3H-RDEA3170 for 30 minutes at room temperature. […] The plates were then subjected to scintillation counting. All samples were assayed in triplicate.

For test [2], the target named is T2, rat URAT1 (Rattus norvegicus, UniProt Q3ZAV1).
T2 construct: hURAT1 and rURAT1 are 553 amino acid proteins with 12 transmembrane segments; expressed in transfected cells; host or cells: URAT1-transfected cells (HEK-293T per the transfection section)
The test can be described thus: ^3H-RDEA3170 URAT1 membrane binding assay. Particulars: 500 nM ^3H-RDEA3170; membranes from transfected cells. How it is done: as §1, §2

T2 sequence (Q3ZAV1 whole entry): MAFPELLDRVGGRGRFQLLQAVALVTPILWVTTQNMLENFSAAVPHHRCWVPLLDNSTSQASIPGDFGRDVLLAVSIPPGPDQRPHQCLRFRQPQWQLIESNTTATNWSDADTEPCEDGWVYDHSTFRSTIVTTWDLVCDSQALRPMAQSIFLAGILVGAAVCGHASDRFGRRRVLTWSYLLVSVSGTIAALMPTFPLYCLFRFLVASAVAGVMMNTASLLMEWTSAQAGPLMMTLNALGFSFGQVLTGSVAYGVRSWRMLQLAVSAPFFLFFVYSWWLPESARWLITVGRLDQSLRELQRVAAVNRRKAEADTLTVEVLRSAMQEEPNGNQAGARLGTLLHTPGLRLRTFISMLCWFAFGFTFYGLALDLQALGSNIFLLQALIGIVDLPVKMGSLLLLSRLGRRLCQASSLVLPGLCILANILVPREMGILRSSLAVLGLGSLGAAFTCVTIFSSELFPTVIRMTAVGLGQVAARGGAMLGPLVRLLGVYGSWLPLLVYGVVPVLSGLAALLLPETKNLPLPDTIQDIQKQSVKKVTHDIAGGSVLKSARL

In the case of `CC(C)(Sc1ccncc1-c1ccc(C#N)c2ccccc12)C(=O)O` [^3H-RDEA3170, 2-((3-(4-cyanonaphthalen-1-yl)pyrindin-4-yl)thio)-2-methylpropanoic acid], the “binding of probe to human URAT1 membranes” value in test [1] (500 nM ^3H-RDEA3170, membranes from transfected cells) was “binds to human URAT1”. For the same compound, the “binding of probe to rat URAT1 membranes” value in test [2] is on record as “not rat URAT1”.

On to `CCCN(CCC)S(=O)(=O)c1ccc(C(=O)O)cc1` [probenecid], for which the “displacement of ^3H-RDEA3170 binding to hURAT1” value in test [1] (human URAT1 membranes, 10 nM ^3H-RDEA3170) is “displace binding of the probe”.

(Values after PMC5054527, “Mechanism of high affinity inhibition of the human urate transporter URAT1” (Scientific Reports, 2016).)
